Assay results taken from US20190209548A1, “LINKED DIARYL COMPOUNDS WITH ANTICANCER PROPERTIES AND METHODS OF USING THE SAME” (University of Maryland, College Park, priority 2014, published 2019).

Assays:
c-MYC G-quadruplex = test: FRET melting in competition with duplex DNA; type: binding; conditions: 1 μM ligand, 0.2 μM c-MYC, up to 500 equivalence of double-stranded DNA
Method: FRET DNA melting in competition with duplex DNA. FRET competition assay was performed by adding 2 μM, 20 μM and 100 μM double-stranded competitor 26ds DNA (5′-CAATCGGATCGAATTCGATCCGATTG-3′) (SEQ ID NO: 16) in the presence of 0.2 μM c-MYC G-quadruplex and 1 μM DMZ analogs. Both c-MYC G-quadruplex and 26ds DNA were diluted in 60 mM potassium cacodylate buffer (pH 7.2) and then annealed by heating at 85° C. for 10 min followed by cooling to room temperature in the heating block. Experiments were performed in triplicate.

G-quadruplexes = test: Binding to G-quadruplexes, general statements; conditions: all of the tested G-quadruplexes, ITC, compare Tables 2 and 3
hTel22 [1] = test: ESI mass spectrometry of hTel22 with excess ligand; type: binding, human; conditions: free DNA present even in excess ligand
Method: Electrospray Ionization Mass Spectrometry. ESI-MS experiments were carried out on a Bruker MicrOTOFQ mass spectrometer. Data acquisition was set to operate in negative ion mode. All experiments were performed in 50 mM ammonium acetate buffer containing 20% HPLC grade methanol and adjusted with 1 N KOH solution to reach pH of 7.0. The WT hTel 22-mer G-quadruplex sample was prepared at a concentration of approximately 10 μM in the ammonium acetate buffer and was exhaustedly dialyzed. Stock solutions of DMZ and Triazene-1 were prepared in the final dialysate buffer at concentration as high as 300 μM. The ESI-MS samples were prepared by mixing the DNA and ligand stock solutions to yield a mixture containing excess of each ligand per equivalence of DNA. The MS capillary voltage was set to +3500 V, dry N2 gas flow was adjusted to 0.5 L/min at 110° C., and the G-quadruplex/ligand samples were directly infused into the MS by using a kD Scientific syringe pump set to a flow rate of 200 μL/hour. Data processing was performed by using Bruker Daltonics Data Analysis program.

[2] = test system: c-MYC protein in MDA-MB-231 cells; test: Western Blot of c-MYC protein expression; type: cell-based, human; conditions: 5.45 or 27.25 μM, 2, 6 or 24 hours
Method: FIG. 7. Western Blot analysis of c-MYC protein expression in MDA-MB-231 after treated with TMPyP4 and DMZ9. A, MDA-MB-231 cells were treated with DMSO vehicle, DMZ9 (5.45 […] and 27.25 μM), TMPyP4 (22.3 μM and 111.5 μM) for 2 h, 6 h and 24 h. Total protein was extracted and analyzed by Western Blot with 1:1,000 C-MYC (Cell Signaling) and 1:10,000 HRP-linked anti-rabbit IgG (Cell Signaling). * Observed high level of cytotoxicity and low protein levels. B and C, the graphs show the relative density as compared with the DMSO vehicle. Scanned images were analyzed using image J software.
Western Blot Analysis of c-MYC Protein Expression. C-MYC protein levels in MDA-MB-231 cells were evaluated by performing Western Blot. MDA-MB-231 breast cancer cells were treated with 22.3 or 111.5 μM TMPyP4 and 5.45 or 27.25 μM DMZ9 for 2, 6 or 24 hours.

27mer WT bcl-2 = test: CD titration with bcl-2 G-quadruplex; type: binding; conditions: K+ Tris buffer
Method: (§1) Circular Dichroism (CD). CD titration experiments were performed with an Olis DSM-20 spectropolarimeter (Bogart, Ga.). All measurements were done at 25° C. using a 1 cm quartz cuvette and covering a spectral range of 220-420 nm. […] Stock solutions of the ligand were added in small amount to reach a molar ratio of 1:1, 3:1, 6:1, and 10:1 of ligand per equivalence of DNA.

hTel22 [3] = test: CD titration with hTel22; type: binding, human; conditions: K+ Tris buffer
Method: as §1

c-kit1 = test: NMM displacement assay; type: binding; conditions: NMM 1 μM, ligand 0-200 μM
Method: Displacement assays with the G-quadruplex binder, NMM. In these assays, the triazene ligand was used at various concentrations: 0, 5, 10, 20, 50, 100, and 200 μM; and the DNA concentration was kept at 1 μM, whereas the concentration of NMM was 1 μM. The experiments were performed in 50 mM Tris-HCl buffer (pH 7.5) in the presence of 50 mM KCl. The excitation wavelength used for NMM was 400 nm and the emission was monitored between 550 and 700 nm (slit width=5 nm, scan speed=600 nm/min, averaging time=0.1 sec, data interval=1 nm, PMT detector voltage=600 V, measurement temperature=20° C.). The sample was initially heated to 95° C. and kept at this temperature for 5 min without ligand or NMM and then cooled down to room temperature for 15 min. Subsequently, the triazene ligand was added to the DNA and incubated for ˜12 h.

7bp HP = test: ITC titration with 7 bp hairpin without A2T2; type: binding; conditions: 20 mM Tris, 100 mM KCl, pH 7.2
Method: Isothermal titration calorimetry. ITC experiments were performed using a VP-ITC calorimeter (GE-Healthcare). A typical ITC experiment involved as many as addition of 28 (10 μL) injections of as high as 1 mM ligand solutions into ˜1.5 mL of a dilute DNA solution (10 μM). Corrected titration curves were achieved by subtracting the blank titration data from the ITC-data for the ligand-DNA titrations. Corrected ITC titrations were fit with a nonlinear regression algorithm again using the CHASM ITC data analysis program developed in our laboratory.
DNA stock solutions were prepared by reconstituting the lyophilized oligonucleotide into 20 mM Tris buffer with a salt concentration of 100 mM KCl and a pH of 7.2. Approximately 2 mL of the oligonucleotide was dialyzed (1000 Mw cutoff membrane) against three changes of buffer solution (1 L, 24 h each) at 4° C. The concentrations of stock DNA solutions were verified using UV-Vis. G-Quadruplex DNAs were annealed by quickly heating to sample to 100° C., holding at 100° C. for ten minutes then slowly cooling to 5° C. over three hours period. Molar extinction coefficient of the DNAs were determined using a nearest-neighbor method for single stranded DNA. The extinction coefficients at 260 nm for the WT 27-mer bcl-2, WT 24-mer c-myc, WT 22-mer human telomere hTel sequences are 267,200 M^−1cm^−1, 248,100 M^−1cm^−1, and 228,500 M^−1cm^−1 respectively. […]

With N=C(N)c1ccc(NN=Nc2ccccc2)cc1 [DMZ1] the “effect of competitor double-stranded DNA on Tm of c-MYC” value (c-MYC G-quadruplex) was “did not affect the Tm of c-MYC”, the “binding less than DMZ” value (G-quadruplexes) was 4-5 orders of magnitude and the “binding affinity in words” value (hTel22 [1]) was “low binding affinity”.
With N=C(N)c1ccc(N=NNc2cccc(C#Cc3ccc(F)cc3)c2)cc1 [DMZ9] the c-MYC protein expression [2] was “caused a decrease in the c-MYC protein expression”.
In the case of N=C(N)c1ccc(/N=N/Nc2ccc(C(=N)N)cc2)cc1 [DMZ, Diminazene aceturate, reference compound], the “CD signal of G-quadruplex upon complexation” value (27mer WT bcl-2) is reported as “dramatically decreased”, the “effect on structure of G-quadruplex (CD)” value (hTel22 [3]) is reported as “very little effect on the structure” and the “competition with NMM for c-kit1 binding” value (c-kit1) is reported as “could indeed compete with NMM for c-kit1 binding”. It also gave a K2 (7bp HP) of 18000 M⁻¹.
